# Assay results as given in PubChem BioAssay (NCI).
#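 Grown in 96-well plates, cells were treated for 48 hours with each compound at five concentrations. Insufficient inhibition: endpoint recorded as highest concentration tested. Definition used: TGI = concentration required for complete inhibition of growth.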
# Legend:
# Experiment in all cases: NCI anticancer screen, dose series, 48 h
# RXF-631 renal = test system: RXF-631 renal
# CCRF-CEM leukemia = test system: CCRF-CEM leukemia
# M14 melanoma = test system: M14 melanoma
# UO-31 renal = test system: UO-31 renal
# U251 CNS = test system: U251 CNS
# IGROV1 ovarian = test system: IGROV1 ovarian
# OVCAR-8 ovarian = test system: OVCAR-8 ovarian
# ACHN renal = test system: ACHN renal
# MALME-3M melanoma = test system: MALME-3M melanoma
# MDA-MB-231 breast = test system: MDA-MB-231 breast
# HCT-116 colon = test system: HCT-116 colon
# TK-10 renal = test system: TK-10 renal
# LOX IMVI melanoma = test system: LOX IMVI melanoma
# OVCAR-4 ovarian = test system: OVCAR-4 ovarian
# RPMI-8226 leukemia = test system: RPMI-8226 leukemia
# NCI-H226 lung = test system: NCI-H226 lung
# A498 renal = test system: A498 renal
# HT29 colon = test system: HT29 colon
# SNB-75 CNS = test system: SNB-75 CNS
# HOP-92 NSCLC = test system: HOP-92 NSCLC
# HS 578T breast = test system: HS 578T breast
# SNB-78 CNS = test system: SNB-78 CNS
# NCI-H460 lung = test system: NCI-H460 lung
# UACC-62 melanoma = test system: UACC-62 melanoma
# SK-MEL-28 melanoma = test system: SK-MEL-28 melanoma
# HOP-18 NSCLC = test system: HOP-18 NSCLC
# SF-268 CNS = test system: SF-268 CNS
# DMS 114 small cell lung = test system: DMS 114 small cell lung
# MOLT-4 leukemia = test system: MOLT-4 leukemia
# KM20L2 colon = test system: KM20L2 colon
# OVCAR-5 ovarian = test system: OVCAR-5 ovarian
# M19-MEL melanoma = test system: M19-MEL melanoma
# K-562 leukemia = test system: K-562 leukemia
# HL-60(TB) leukemia = test system: HL-60(TB) leukemia
# 786-0 renal = test system: 786-0 renal
# MDA-MB-435 = test system: MDA-MB-435
# CAKI-1 renal = test system: CAKI-1 renal
# SN12C renal = test system: SN12C renal
# T-47D breast = test system: T-47D breast
# BT-549 breast = test system: BT-549 breast
# NCI-H23 lung = test system: NCI-H23 lung
# SW-620 colon = test system: SW-620 colon
# LXFL 529 NSCLC = test system: LXFL 529 NSCLC
# SR leukemia = test system: SR leukemia
# SNB-19 CNS = test system: SNB-19 CNS
# HCC-2998 colon = test system: HCC-2998 colon
# COLO 205 colon = test system: COLO 205 colon
# SK-OV-3 ovarian = test system: SK-OV-3 ovarian
# SF-539 CNS = test system: SF-539 CNS
# DMS 273 small cell lung = test system: DMS 273 small cell lung
# SK-MEL-5 melanoma = test system: SK-MEL-5 melanoma
# MDA-N = test system: MDA-N
# HOP-62 NSCLC = test system: HOP-62 NSCLC
# A549 NSCLC = test system: A549 NSCLC
# EKVX NSCLC = test system: EKVX NSCLC
# PC-3 prostate = test system: PC-3 prostate
# MCF7 breast = test system: MCF7 breast
# SF-295 CNS = test system: SF-295 CNS
# HCT-15 colon = test system: HCT-15 colon
# RXF 393 renal = test system: RXF 393 renal
# DU-145 prostate = test system: DU-145 prostate
# KM12 colon = test system: KM12 colon
# NCI-H522 lung = test system: NCI-H522 lung
# UACC-257 melanoma = test system: UACC-257 melanoma
# SK-MEL-2 melanoma = test system: SK-MEL-2 melanoma
# DLD-1 colon = test system: DLD-1 colon
# OVCAR-3 ovarian = test system: OVCAR-3 ovarian
# XF 498 CNS = test system: XF 498 CNS
smiles,measurement,setting,value
CN(C)CCNC(=O)c1cccc2nc3c(ccc4ccccc43)nc12,TGI,RXF-631 renal,2.43 µM
same,TGI,CCRF-CEM leukemia,4.68 µM
same,TGI,M14 melanoma,11 µM
same,TGI,UO-31 renal,14.9 µM
same,TGI,U251 CNS,4.49 µM
same,TGI,IGROV1 ovarian,22.2 µM
same,TGI,OVCAR-8 ovarian,7.84 µM
same,TGI,ACHN renal,4.34 µM
same,TGI,MALME-3M melanoma,3.05 µM
same,TGI,MDA-MB-231 breast,4.12 µM
same,TGI,HCT-116 colon,5.68 µM
same,TGI,TK-10 renal,20.6 µM
same,TGI,LOX IMVI melanoma,2.44 µM
same,TGI,OVCAR-4 ovarian,5.27 µM
same,TGI,RPMI-8226 leukemia,6.66 µM
same,TGI,NCI-H226 lung,10.9 µM
same,TGI,A498 renal,15.5 µM
same,TGI,HT29 colon,4.08 µM
same,TGI,SNB-75 CNS,16.5 µM
same,TGI,HOP-92 NSCLC,17.3 µM
same,TGI,HS 578T breast,22.8 µM
same,TGI,SNB-78 CNS,19.4 µM
same,TGI,NCI-H460 lung,1.91 µM
same,TGI,UACC-62 melanoma,5.2 µM
same,TGI,SK-MEL-28 melanoma,4.37 µM
same,TGI,HOP-18 NSCLC,29.9 µM
same,TGI,SF-268 CNS,2.19 µM
same,TGI,DMS 114 small cell lung,8.12 µM
same,TGI,MOLT-4 leukemia,1.6 µM
same,TGI,KM20L2 colon,3.15 µM
same,TGI,OVCAR-5 ovarian,15 µM
same,TGI,M19-MEL melanoma,3.02 µM
same,TGI,K-562 leukemia,4.86 µM
same,TGI,HL-60(TB) leukemia,3.98 µM
same,TGI,786-0 renal,17.6 µM
same,TGI,MDA-MB-435,13.7 µM
same,TGI,CAKI-1 renal,12.9 µM
same,TGI,SN12C renal,14.6 µM
same,TGI,T-47D breast,20.6 µM
same,TGI,BT-549 breast,22.8 µM
same,TGI,NCI-H23 lung,15.9 µM
same,TGI,SW-620 colon,3.61 µM
same,TGI,LXFL 529 NSCLC,14 µM
same,TGI,SR leukemia,4.25 µM
same,TGI,SNB-19 CNS,18.1 µM
same,TGI,HCC-2998 colon,7.18 µM
same,TGI,COLO 205 colon,11.3 µM
same,TGI,SK-OV-3 ovarian,24.2 µM
same,TGI,SF-539 CNS,3.59 µM
same,TGI,DMS 273 small cell lung,> 100 µM
same,TGI,SK-MEL-5 melanoma,4.03 µM
same,TGI,MDA-N,3.21 µM
same,TGI,HOP-62 NSCLC,7.88 µM
same,TGI,A549 NSCLC,12.2 µM
same,TGI,EKVX NSCLC,17.8 µM
same,TGI,PC-3 prostate,10.1 µM
same,TGI,MCF7 breast,3.27 µM
same,TGI,SF-295 CNS,14.3 µM
same,TGI,HCT-15 colon,4.6 µM
same,TGI,RXF 393 renal,9.54 µM
same,TGI,DU-145 prostate,16.4 µM
same,TGI,KM12 colon,6.9 µM
same,TGI,NCI-H522 lung,18.7 µM
same,TGI,UACC-257 melanoma,3.4 µM
same,TGI,SK-MEL-2 melanoma,3.86 µM
same,TGI,DLD-1 colon,8.25 µM
same,TGI,OVCAR-3 ovarian,19.7 µM
CC(=O)Nc1cccc2[nH]c3ccccc3c(=O)c12,TGI,RXF-631 renal,94.8 µM
same,TGI,CCRF-CEM leukemia,> 100 µM
same,TGI,M14 melanoma,> 100 µM
same,TGI,UO-31 renal,32.7 µM
same,TGI,U251 CNS,75.5 µM
same,TGI,IGROV1 ovarian,70.3 µM
same,TGI,OVCAR-8 ovarian,45.1 µM
same,TGI,ACHN renal,52.3 µM
same,TGI,MALME-3M melanoma,50.1 µM
same,TGI,HCT-116 colon,28.6 µM
same,TGI,TK-10 renal,50.1 µM
same,TGI,OVCAR-4 ovarian,65.1 µM
same,TGI,RPMI-8226 leukemia,43.8 µM
same,TGI,NCI-H226 lung,40.5 µM
same,TGI,A498 renal,29.6 µM
same,TGI,HT29 colon,40.9 µM
same,TGI,SNB-75 CNS,65.9 µM
same,TGI,NCI-H460 lung,43.2 µM
same,TGI,UACC-62 melanoma,31.1 µM
same,TGI,SK-MEL-28 melanoma,92.3 µM
same,TGI,HOP-18 NSCLC,38.6 µM
same,TGI,SF-268 CNS,95.4 µM
same,TGI,DMS 114 small cell lung,79.6 µM
same,TGI,MOLT-4 leukemia,> 100 µM
same,TGI,KM20L2 colon,83.3 µM
same,TGI,OVCAR-5 ovarian,54.2 µM
same,TGI,M19-MEL melanoma,51.1 µM
same,TGI,K-562 leukemia,> 100 µM
same,TGI,HL-60(TB) leukemia,39.8 µM
same,TGI,786-0 renal,51.1 µM
same,TGI,CAKI-1 renal,45.3 µM
same,TGI,SN12C renal,> 100 µM
same,TGI,NCI-H23 lung,29.5 µM
same,TGI,SW-620 colon,58.3 µM
same,TGI,SNB-19 CNS,64.1 µM
same,TGI,COLO 205 colon,34 µM
same,TGI,SK-OV-3 ovarian,67.4 µM
same,TGI,SF-539 CNS,63.7 µM
same,TGI,DMS 273 small cell lung,> 100 µM
same,TGI,XF 498 CNS,50.2 µM
same,TGI,SK-MEL-5 melanoma,30.4 µM
same,TGI,A549 NSCLC,55.6 µM
same,TGI,EKVX NSCLC,78.6 µM
same,TGI,SF-295 CNS,51.1 µM
same,TGI,HCT-15 colon,42.7 µM
same,TGI,KM12 colon,41.2 µM
same,TGI,NCI-H522 lung,26.2 µM
same,TGI,UACC-257 melanoma,58.3 µM
same,TGI,SK-MEL-2 melanoma,38.7 µM
same,TGI,DLD-1 colon,53.6 µM
same,TGI,OVCAR-3 ovarian,39.5 µM
